Literature values in US20200209238A1, “OPTIMIZING DIAGNOSTICS FOR GALACTOFURANOSE CONTAINING ANTIGENS” (The Johns Hopkins University, priority 2017, published 2020).

Biological target: T1, hINTL-1 (Homo sapiens, UniProt Q8WWA0)
T1 construct: from tissue; host or cells: human urine
T1 sequence (Q8WWA0 19-298): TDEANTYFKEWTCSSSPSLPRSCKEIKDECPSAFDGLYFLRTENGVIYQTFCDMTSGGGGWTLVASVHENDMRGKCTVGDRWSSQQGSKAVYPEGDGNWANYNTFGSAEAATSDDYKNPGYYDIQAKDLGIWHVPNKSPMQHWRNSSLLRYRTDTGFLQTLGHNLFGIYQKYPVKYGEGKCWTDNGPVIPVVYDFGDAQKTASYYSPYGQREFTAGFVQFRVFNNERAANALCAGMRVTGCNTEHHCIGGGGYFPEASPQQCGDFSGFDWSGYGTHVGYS

binding to hIntL-1: does not bind
Structure (SMILES): CC(=O)N[C@H]1[C@H]([C@H](O)[C@H](O)CO)OC(O)(C(=O)O)C[C@@H]1O (stereo partly shown) [N-Acetylneuraminic acid (Neu5Ac), N-Acetylneuraminic acid]
